Holding throughout (format): cell-based
For assay [1], the system named is HepG2 cells. Nature of the assay: Measurement of cholesterol synthesis inhibitory ability (cholesterol content in cell lysates, Amplex red). The settings on record: 24 hours, HepG2, lower value = stronger cholesterol synthesis inhibition; for Cholesterol (100 uM) Aver.: 100 uM compound; for Cholesterol (500 uM) Aver.: 500 uM compound.
Assay [2] has as its system HepG2 cells. Nature of the assay: Measurement of triglyceride (triglyceride content in cell lysates, Amplex red). The settings on record: 24 hours, HepG2, lower value = stronger triglyceride synthesis inhibition; for Triglyceride (100 uM) Aver.: 100 uM compound; for Triglyceride (500 uM) Aver.: 500 uM compound.
Assay [3] concerns HepG2 cells. The assay can be described thus: Measurement of gluconeogenesis inhibitory ability (14C-lactate, glucose formed in cells).
In assay [4] the test system is C2C12 cells. The assay can be described thus: Measurement of glucose absorption ability (3H-deoxy-glucose uptake with insulin). The settings on record: 100 uM compound with 1 μM insulin, 24 hours, differentiated C2C12; higher value = stronger; more than 200% counts as glucose absorption ability.
Setting [5] is: 100 uM compound, 24 hours, HepG2, lower value = stronger gluconeogenesis inhibition.

Where two headings read alike, the source gives them in different places.

For the compound `Cl.N=C(N)NC(=Nc1cccc(C(F)(F)F)c1)NCCc1cccs1` [Example 14, N1-2-(thiophen-2-ylethyl)-N2-(3-trifluoromethyl)phenyl biguanide hydrochloride], in assay [1], the “Cholesterol (100 uM) Aver.” value was 23.3 and the “Cholesterol (500 uM) Aver.” value is 41.4. Besides, in assay [2], the “Triglyceride (100 uM) Aver.” value is recorded as 11.8 and the “Triglyceride (500 uM) Aver.” value was 13.2. Also, the “Gluconeogenesis inhibition (100 uM) Aver.” value (“Gluconeogenesis inhibition” for short) in assay [3] (setting [5]) was 8.75. Also, the “Glucose absorption (100 uM) Aver.” value in assay [4] is 4.38%.

`CN=C(NCCc1sccc1C)NC(=N)N.Cl` [Example 45, N1-2-(3-methylthiophen-2-ylethyl)-N2-methyl biguanide hydrochloride]: in assay [1], the “Cholesterol (100 uM) Aver.” value worked out at 77.03 and the “Cholesterol (500 uM) Aver.” value is 63.78. In assay [2], the “Triglyceride (100 uM) Aver.” value is on record as 92.38 and the “Triglyceride (500 uM) Aver.” value was 89.00. Besides, the “Gluconeogenesis inhibition” value in assay [3] (setting [5]) was 94.51. Further, in assay [4], the “Glucose absorption (100 uM) Aver.” value was determined as 264.76%.

In the case of `COc1cc(N=C(NCCc2cccs2)NC(=N)N)cc(OC)c1.Cl` [Example 32, N1-2-(thiophen-2-ylethyl)-N2-(3,5-dimethoxyphenyl) biguanide hydrochloride], in assay [1], the “Cholesterol (100 uM) Aver.” value is on record as 48.02 and the “Cholesterol (500 uM) Aver.” value was determined as 26.70. Moreover, in assay [2], the “Triglyceride (100 uM) Aver.” value amounted to 70.80 and the “Triglyceride (500 uM) Aver.” value is given as 28.47. The “Gluconeogenesis inhibition” value in assay [3] (setting [5]) is reported as 152.19. In addition, the “Glucose absorption (100 uM) Aver.” value in assay [4] is on record as 11.68%.

`CC(C)(C)CC(C)(C)N=C(NCCc1cccs1)NC(=N)N.Cl` [Example 2, N1-2-(thiophen-2-ylethyl)-N2-t-octyl biguanide hydrochloride]: in assay [1], the “Cholesterol (100 uM) Aver.” value worked out at 63.63 and the “Cholesterol (500 uM) Aver.” value is given as 55.38. In assay [2], the “Triglyceride (100 uM) Aver.” value was 29.21 and the “Triglyceride (500 uM) Aver.” value is −1.92. Moreover, the “Gluconeogenesis inhibition” value in assay [3] (setting [5]) is 68.28. Moreover, in assay [4], the “Glucose absorption (100 uM) Aver.” value is recorded as 10.46%.

As to “N1-2-(5-ethylthiophen-2-ylethyl)-N2-methyl biguanide hydrochloride [Example 46]”, in assay [1], the “Cholesterol (100 uM) Aver.” value was 84.52 and the “Cholesterol (500 uM) Aver.” value amounted to 71.64. For the same compound, in assay [2], the “Triglyceride (100 uM) Aver.” value stood at 90.82 and the “Triglyceride (500 uM) Aver.” value is 86.07. Besides, the “Gluconeogenesis inhibition” value in assay [3] amounted to 23.65. The “Glucose absorption (100 uM) Aver.” value in assay [4] amounted to 353.21%.

The values above are taken from patent US8648111B2, “N1-2-thiophene-2-ylethyl-N2-substituted biguanide derivate, preparation method thereof, and pharmaceutical composition containing the same as active ingredients” (Hanall Biopharma Co., Ltd., priority 2008, dated 2014).
